Test results reported in US20030045580A1, “Ibuprofen containing active agent preparation” (priority 2000, published 2003).

Assay: Hardness (radial breaking force) of 200 mg, 9 mm compacts from active ingredient preparation vs physical mixture
Assay type: physicochemical
Settings: 200 mg compacts, diameter 9 mm
Method: The hardness of the round compacts means the radial breaking force.
Various compositions of the novel active ingredient preparation were compressed under various pressures using a type EKO press supplied by Korsch, Berlin, to give 200 mg compacts with a diameter of 9 mm. For comparison therewith, the physical mixtures (PM) of the same composition were compressed under analogous conditions, and the hardnesses of the produced compacts were compared. Physical mixtures mean the dry mixture of ibuprofen with the particular binder.
In contrast to the purely physical mixtures, the novel ibuprofen-containing active ingredient compositions result, even with low compressive forces, in compacts with hardnesses which are distinctly above the hardnesses of 25 N which are adequate for tablets.

Hardness with a compressive force of 4.7 to 5.3 kN (compressive force 4.7 to 5.3 kN): 11.0 N | Hardness with a compressive force of 9.7 to 10.9 kN (compressive force 9.7 to 10.9 kN): 10.8 N | Hardness with a compressive force of 20.1 to 21.1 kN (compressive force 20.1 to 21.1 kN): 20.1 N
SMILES: CC(C)Cc1ccc(C(C)C(=O)O)cc1 (stereo not drawn) [0% (pure), 2-(4-isobutylphenyl)propionic acid]
